From publication PMC4686814 (Nature communications, 2015)
Blank lines part the entries; values can stand above or below the molecule they belong to.

Tests used:
[1] = target: T1, MsVps4ΔMIT (Metallosphaera sedula, UniProt A4YHC5); assay: ITC; assay type: binding
T1 construct: gene Msed_1672

[2] = target: T1, MsVps4ΔMIT; assay: ITC, two-site model; assay type: binding
[3] = target: the molecule itself; assay: SEC; Superose 6; hVPS4B E235Q and mutants of it at 100 µM with 1 mM ATP and 5 mM MgCl2

T1 sequence (A4YHC5 entry or part of it, stated change not applied): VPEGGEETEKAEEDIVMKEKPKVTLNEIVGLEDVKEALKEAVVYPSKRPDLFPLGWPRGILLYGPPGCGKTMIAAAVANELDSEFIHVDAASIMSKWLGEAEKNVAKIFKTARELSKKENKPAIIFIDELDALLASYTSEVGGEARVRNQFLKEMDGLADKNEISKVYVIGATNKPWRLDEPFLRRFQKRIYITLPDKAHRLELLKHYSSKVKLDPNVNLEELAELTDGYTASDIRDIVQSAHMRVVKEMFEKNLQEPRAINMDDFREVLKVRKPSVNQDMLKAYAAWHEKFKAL

- Kd [1]: 3300 nM
Molecule: Nc1ncnc2c1ncn2[C@@H]1O[C@H](COP(=O)(O)OP(=O)(O)OP(=O)(O)O)[C@@H](O)[C@H]1O [ATP]

- Kd [2]: 400 nM
Molecule: Nc1ncnc2c1ncn2[C@@H]1O[C@H](COP(=O)(O)OP(=O)(O)O)[C@@H](O)[C@H]1O [ADP]

B1: hVPS4B E235Q Ile124Glu (enzyme, human, UniProt O75351 1-444, looked up)
chain: MSSTSPNLQKAIDLASKAAQEDKAGNYEEALQLYQHAVQYFLHVVKYEAQGDKAKQSIRAKCTEYLDRAEKLKEYLKNKEKKAQKPVKEGQPSPADEKGNDSDGEGESDDPEKKKLQNQLQGAEVIERPNVKWSDVAGLEGAKEALKEAVILPIKFPHLFTGKRTPWRGILLFGPPGTGKSYLAKAVATEANNSTFFSISSSDLVSKWLGESEKLVKNLFQLARENKPSIIFIDQIDSLCGSRSENESEAARRIKTEFLVQMQGVGVDNDGILVLGATNIPWVLDSAIRRRFEKRIYIPLPEPHARAAMFKLHLGTTQNSLTEADFRELGRKTDGYSGADISIIVRDALMQPVRKVQSATHFKKVRGPSRADPNHLVDDLLTPCSPGDPGAIEMTWMDVPGDKLLEPVVSMSDMLRSLSNTKPTVNEHDLLKLKKFTEDFGQEG
- stoichiometry N [3]: 6
